Measured values as given in publication PMC10290117, “Molecular mechanism of phosphopeptide neoantigen immunogenicity” (Nature Communications, 2023).

Test system: TCR27-AKD10R3 cells
Assay: X-scan (peptide scan), EGFP reporter effector cells
Type: cell-based, murine
Settings: Fig. 1c source data, HLA B*07, T2 cells pulsed with 25 μg peptide per 1 × 10^6 cells, 2 h, 37 °C, effector cells 2:1 overnight, mean value of triplicate
Experimental: Tap-deficient T2 (174x CEM.T2) HLA-B*0702+ cells were received from Dr. Victor Engelhard. These and the commercially purchased Tap-deficient T2 (174 x CEM.T2) cells (ATCC CRL 1991) were maintained in RPMI 1640 (BioConcept) supplemented with 10% fetal calf serum (FCS, HyClone), 2mM L-glutamine and 1% Penicillin/Streptomycin at 37 °C and 5% CO2. The EGFP reporter cell line was based on a murine TCR negative thymoma cell line derived from strain BW5417 (ATCC®TIB-47TM) and was stably transduced with (a) TCR27 in which the human constant regions were replaced with those of mouse, (b) a chimeric mouse/human CD8, and (c) an EGFP reporter construct linked to a minimal IL-2 promoter comprising three NFAT-binding sites (3xNFAT)[44]. The transduced cells were termed TCR27-AKD10R3 cells and will be called the effector cells. Mouse cell lines were cultured in SF-IMDM (BioConcept) supplemented with 3% FCS, 1% Penicillin/Streptomycin, and 50 μM beta-mercaptoethanol at 37 °C and 10% CO2.
Peptides were dissolved in dimethyl sulfoxide (DMSO) at concentrations of 2–20 mg/mL, aliquoted and stored at −80 °C. Peptide-pulsing experiments were performed by pre-incubating T2 cells with 25 μg peptide per 1 × 10^6 cells in PBS for 2 h at 37 °C and 5% CO2, washed three times to remove unbound peptides and used for further downstream analysis. Peptide-pulsed T2 cells were incubated with effector cells in a 2:1 ratio overnight in SF-IMDM at 37 °C and 10% CO2, washed twice and stained with anti-mouse TCR-® chain clone H57-597 (BD Pharmingen #560656, 1:500) for 30 min at RT. Cells were washed twice before FACS-analysis using a BD FACS Canto II with System software v2.0. Data analysis was performed using FlowJo V10 Software. Binding affinity between each peptide and HLA-B*0702 was determined using an Alpha assay. It is a homogenous, proximity-based assay for detection of peptides binding to HLA class I molecules using a conformation-dependent anti-HLA class I antibody, W6/32, as one tag and a biotinylated recombinant HLA class I molecule as the other tag, and a proximity-based signal was generated through the luminescent oxygen channeling immunoassay technology (PerkinElmer) as described.
To identify the off-target peptides we have utilized an approach that was developed previously. In brief, we investigated which amino acids at each position in pMLL747–755 enable TCR interaction by sequentially replacing every amino acid position outside of the anchor positions 2 and 9 with all 19 alternative amino acids, resulting in 134 peptides (133 altered peptides plus original epitope). Each peptide was individually evaluated using cell-based in vitro cytotoxicity assay. To represent the TCR recognition kernel, we have defined Position Weight Matrices (PWMs) for each assay by assigning normalized measurements to each of the 20 amino acids in each position. To predict potential off-target peptides, we applied an algorithm projecting the PWM-defined kernel into the human proteome, scoring TCR27 recognition for the predicted HLA-B^*0702 binding 9-mer peptides. Of the 11 peptides with highest predicted cross-reactivity scores, we confirmed that only 2, […] and pDOT1L998–1006, strongly activated the TCR27-expressing effector T cells.

Row | Substance | Percentage GFP positive from TCR+ cells
1 | APRsPSHSM [single-residue substitution of pMLL747–755, Pos 1] | 1.5%
2 | CPRsPSHSM [single-residue substitution of pMLL747–755, Pos 1] | 1.3%
3 | DPRsPSHSM [single-residue substitution of pMLL747–755, Pos 1] | 1.14%
4 | EPAsPSHSM [single-residue substitution of pMLL747–755, Pos 3] | 14.3%
5 | EPCsPSHSM [single-residue substitution of pMLL747–755, Pos 3] | 9.53%
6 | EPDsPSHSM [single-residue substitution of pMLL747–755, Pos 3] | 1.12%
7 | EPEsPSHSM [single-residue substitution of pMLL747–755, Pos 3] | 2.7%
8 | EPFsPSHSM [single-residue substitution of pMLL747–755, Pos 3] | 1.13%
9 | EPGsPSHSM [single-residue substitution of pMLL747–755, Pos 3] | 1.47%
10 | EPHsPSHSM [single-residue substitution of pMLL747–755, Pos 3] | 5.91%
11 | EPIsPSHSM [single-residue substitution of pMLL747–755, Pos 3] | 1.83%
12 | EPKsPSHSM [single-residue substitution of pMLL747–755, Pos 3] | 10.3%
13 | EPLsPSHSM [single-residue substitution of pMLL747–755, Pos 3] | 1.35%
14 | EPMsPSHSM [single-residue substitution of pMLL747–755, Pos 3] | 1.48%
15 | EPNsPSHSM [single-residue substitution of pMLL747–755, Pos 3] | 5%
16 | EPPsPSHSM [single-residue substitution of pMLL747–755, Pos 3] | 1%
17 | EPQsPSHSM [single-residue substitution of pMLL747–755, Pos 3] | 1.31%
18 | EPRAPSHSM [single-residue substitution of pMLL747–755, Pos 4] | 0.88%
19 | EPRCPSHSM [pMLL747–755 with cysteine at Pos 4] | 1.02%
20 | EPRDPSHSM [pMLL747–755 with aspartate at P4] | 0.92%
21 | EPREPSHSM [pMLL747–755 with glutamate at P4] | 0.77%
22 | EPRFPSHSM [single-residue substitution of pMLL747–755, Pos 4] | 0.91%
23 | EPRGPSHSM [single-residue substitution of pMLL747–755, Pos 4] | 1.01%
24 | EPRHPSHSM [single-residue substitution of pMLL747–755, Pos 4] | 0.9%
25 | EPRIPSHSM [single-residue substitution of pMLL747–755, Pos 4] | 0.86%
26 | EPRKPSHSM [single-residue substitution of pMLL747–755, Pos 4] | 1.03%
27 | EPRLPSHSM [single-residue substitution of pMLL747–755, Pos 4] | 1.21%
28 | EPRMPSHSM [single-residue substitution of pMLL747–755, Pos 4] | 1.25%

Row | Substance | Percentage GFP positive from TCR+ cells
29 | EPRNPSHSM [single-residue substitution of pMLL747–755, Pos 4] | 1.07%
30 | EPRPPSHSM [single-residue substitution of pMLL747–755, Pos 4] | 1.21%
31 | EPRQPSHSM [single-residue substitution of pMLL747–755, Pos 4] | 1.08%
32 | EPRRPSHSM [single-residue substitution of pMLL747–755, Pos 4] | 0.98%
33 | EPRTPSHSM [single-residue substitution of pMLL747–755, Pos 4] | 0.8%
34 | EPRVPSHSM [single-residue substitution of pMLL747–755, Pos 4] | 0.76%
35 | EPRWPSHSM [single-residue substitution of pMLL747–755, Pos 4] | 0.96%
36 | EPRYPSHSM [single-residue substitution of pMLL747–755, Pos 4] | 0.87%
37 | EPRsASHSM [single-residue substitution of pMLL747–755, Pos 5] | 0.92%
38 | EPRsCSHSM [single-residue substitution of pMLL747–755, Pos 5] | 0.98%
39 | EPRsDSHSM [single-residue substitution of pMLL747–755, Pos 5] | 0.95%
40 | EPRsESHSM [single-residue substitution of pMLL747–755, Pos 5] | 0.97%
41 | EPRsFSHSM [single-residue substitution of pMLL747–755, Pos 5] | 0.91%
42 | EPRsGSHSM [single-residue substitution of pMLL747–755, Pos 5] | 0.96%
43 | EPRsHSHSM [single-residue substitution of pMLL747–755, Pos 5] | 0.93%
44 | EPRsISHSM [single-residue substitution of pMLL747–755, Pos 5] | 0.81%
45 | EPRsKSHSM [single-residue substitution of pMLL747–755, Pos 5] | 0.9%
46 | EPRsLSHSM [single-residue substitution of pMLL747–755, Pos 5] | 0.88%
47 | EPRsMSHSM [single-residue substitution of pMLL747–755, Pos 5] | 0.97%
48 | EPRsNSHSM [single-residue substitution of pMLL747–755, Pos 5] | 0.84%
49 | EPRsPAHSM [single-residue substitution of pMLL747–755, Pos 6] | 1.34%
50 | EPRsPCHSM [single-residue substitution of pMLL747–755, Pos 6] | 8.54%
51 | EPRsPDHSM [single-residue substitution of pMLL747–755, Pos 6] | 1.07%
52 | EPRsPEHSM [single-residue substitution of pMLL747–755, Pos 6] | 4.34%
53 | EPRsPFHSM [single-residue substitution of pMLL747–755, Pos 6] | 0.82%
54 | EPRsPGHSM [single-residue substitution of pMLL747–755, Pos 6] | 1.34%
55 | EPRsPHHSM [single-residue substitution of pMLL747–755, Pos 6] | 2.09%
